Drawing on US20260159520A1, “HETEROBIFUNCTIONAL COMPOUNDS AND METHODS OF TREATING DISEASE” (Halda Therapeutics OpCo, Inc., priority 2022, published 2026), this text covers GI50 for 16 compounds.

Type in all cases: cell-based
One assay deals with T47D cells. Nature of the assay: Cellular growth inhibition assay for T47D cells. The note with it: Homo sapiens, 72 hours, CellTiter-Glo 2.0. A digest of the protocol: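 Luminescence from CellTiter-Glo 2.0 after 72 h of compound exposure gives the viability signal. Cells grew in insulin-supplemented (0.2 units/mL) DMEM with 10% FBS and were treated one day after seeding at 0.5% DMSO. GI50 values come from four-parameter nonlinear regression.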
(ATP-based viability assays read luminescence as a measure of living cells.)

Assay [1] concerns T-Rex 293 cell line SC3 cells lacking increased expression of androgen receptor protein. In words: Cellular growth inhibition, T-Rex 293 SC3 cells without doxycycline. The note with it: not exposed to doxycycline, 72 hours, CellTiter-Glo 2.0. In outline: (§1)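 Growth inhibition is measured in an inducible AR-expressing T-Rex 293 clone, SC3, cultured with or without 10 ng/mL doxycycline in hormone-depleted medium. Test compounds are applied for 72 hours. GI50 values derive from CellTiter-Glo 2.0 signal fitted by four-parameter regression.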

Assay [2] relates to T-Rex 293 cell line SC3 cells having increased expression of androgen receptor protein. Nature of the assay: Cellular growth inhibition, T-Rex 293 SC3 cells with doxycycline (increased androgen receptor expression). Particulars: with 10 ng/mL doxycycline (increased androgen receptor), 72 hours, CellTiter-Glo 2.0. In outline: as §1
The subject of another assay is VCaP cells. In words: Cellular growth inhibition assay for VCaP cells. The note with it: Homo sapiens, 72 hours, CellTiter-Glo 2.0.

One may read the GI50 as the concentration that inhibits growth by half. A high value points to less potent growth inhibition. As for `CCc1cnn2c(NCc3ccc(OCCN(C)c4ncc(C(=O)N[C@H]5C(C)(C)[C@H](Oc6ccc(C#N)c(Cl)c6)C5(C)C)cn4)nc3)cc(N3CCCC[C@H]3CCO)nc12` [Compound I-1], the GI50 was 500 to 1500 nM with T47D cells, 100 to 1000 nM in assay [1] and 100 to 1000 nM in assay [2].

`CCc1cnn2c(NCc3ccc(OCCOCCOCCOCCOCCN(C)c4ncc(C(=O)N[C@H]5C(C)(C)[C@H](Oc6ccc(C#N)c(Cl)c6)C5(C)C)cn4)nc3)cc(N3CCCC[C@H]3CCO)nc12` [Compound I-3]: the GI50 in the assay with VCaP cells was below 100 nM; in assay [1], 100 to 1000 nM; in assay [2], below 100 nM.

With `CCc1cnn2c(NCc3ccc(=O)n(CCOCCOCCOCCOCCOCCOCCN(C)c4ncc(C(=O)N[C@H]5C(C)(C)[C@H](Oc6ccc(C#N)c(Cl)c6)C5(C)C)cn4)c3)cc(N3CCCC[C@H]3CCO)nc12` [Compound I-4, N-((1r,3r)-3-(3-chloro-4-cyanophenoxy)-2,2,4,4-tetramethylcyclobutyl)-2-((20-(5-(((3-ethyl-5-((S)-2-(2-hydroxyethyl)piperidin-1-yl)pyrazolo[1,5-a]pyrimidin-7-yl)amino)methyl)-2-oxopyridin-1(2H)-yl)-3,6,9,12,15,18-hexaoxaicosyl)(methyl)amino)pyrimidine-5-carboxamide], the 50% growth inhibitory concentration (GI50) in assay [1] and in assay [2] was 100 to 1000 nM each time.

Take `CCc1cnn2c(NCc3ccc(OCCOCCOCCOCCOCCOCCOCCN(C)c4ncc(C(=O)N[C@H]5C(C)(C)[C@H](Oc6ccc(C#N)c(Cl)c6)C5(C)C)cn4)nc3)cc(N3CCCC[C@H]3CCO)nc12` [Compound I-5]: the 50% growth inhibitory concentration (GI50) in assay [1] lay within 1000 to 3500 nM; in assay [2] it was 100 to 1000 nM.

On to `CCc1cnn2c(NCc3ccc(OCCOC4CCN(c5ncc(C(=O)N[C@H]6C(C)(C)[C@H](Oc7ccc(C#N)c(Cl)c7)C6(C)C)cn5)CC4)nc3)cc(N3CCCC[C@H]3CCO)nc12` [Compound I-7, N-((1r,3r)-3-(3-chloro-4-cyanophenoxy)-2,2,4,4-tetramethylcyclobutyl)-2-(4-(2-((5-(((3-ethyl-5-((S)-2-(2-hydroxyethyl)piperidin-1-yl)pyrazolo[1,5-a]pyrimidin-7-yl)amino)methyl)pyridin-2-yl)oxy)ethoxy)piperidin-1-yl)pyrimidine-5-carboxamide], for which the GI50 was above 3000 nM in the assay with T47D cells, 1000 to 3500 nM with VCaP cells, above 3500 nM in assay [1] and above 3500 nM in assay [2].

On to `CCc1cnn2c(NCc3ccc(OCCOCCOCCOC4CCN(c5ncc(C(=O)N[C@H]6C(C)(C)[C@H](Oc7ccc(C#N)c(Cl)c7)C6(C)C)cn5)CC4)nc3)cc(N3CCCC[C@H]3CCO)nc12` [Compound I-8], for which the GI50 is below 500 nM in the assay with T47D cells, below 100 nM in the assay on VCaP cells, 100 to 1000 nM in assay [1] and below 100 nM in assay [2].

In the case of `CCc1cnn2c(NCc3ccc(OCCOCCOCCOCCOCCOC4CCN(c5ncc(C(=O)N[C@H]6C(C)(C)[C@H](Oc7ccc(C#N)c(Cl)c7)C6(C)C)cn5)CC4)nc3)cc(N3CCCC[C@H]3CCO)nc12` [Compound I-9], the GI50 with VCaP cells was below 100 nM; in assay [1] it was 100 to 1000 nM; in assay [2], below 100 nM.

As for `CC1(C)[C@H](NC(=O)c2cnc(N3CCC(OCCNS(=O)(=O)c4ccc(Nc5ncc(Br)c(Nc6cccc(F)c6C(N)=O)n5)cc4)CC3)nc2)C(C)(C)[C@H]1Oc1ccc(C#N)c(Cl)c1` [Compound I-13, 2-(4-(2-((4-((5-bromo-4-((2-carbamoyl-3-fluorophenyl)amino)pyrimidin-2-yl)amino)phenyl)sulfonamido)ethoxy)piperidin-1-yl)-N-((1 r,3r)-3-(3-chloro-4-cyanophenoxy)-2,2,4,4-tetramethylcyclobutyl)pyrimidine-5-carboxamide], the 50% growth inhibitory concentration (GI50) in the assay on T47D cells is below 500 nM; in assay [1], above 3500 nM; in assay [2] it was above 3500 nM.

`CCc1cnn2c(NCc3ccc(OCCCCOCCOC4CCN(c5ncc(C(=O)N[C@H]6C(C)(C)[C@H](Oc7ccc(C#N)c(Cl)c7)C6(C)C)cn5)CC4)nc3)cc(N3CCCC[C@H]3CCO)nc12` [Compound I-34]: the 50% growth inhibitory concentration (GI50) in the assay with VCaP cells was below 100 nM; in assay [1] it was above 3500 nM; in assay [2], below 100 nM.

In the case of `CCc1cnn2c(NCc3ccc(OCCN4CCN(CC5CCN(c6ncc(C(=O)N[C@H]7C(C)(C)[C@H](Oc8ccc(C#N)c(Cl)c8)C7(C)C)cn6)CC5)CC4)nc3)cc(N3CCCC[C@H]3CCO)nc12` [Compound I-41], the 50% growth inhibitory concentration (GI50) is below 500 nM in the assay on T47D cells, below 100 nM in the assay with VCaP cells, 100 to 1000 nM in assay [1] and below 100 nM in assay [2].

For `CCc1cnn2c(NCc3ccc(COCCN4CCN(CC5CCN(c6ncc(C(=O)N[C@H]7C(C)(C)[C@H](Oc8ccc(C#N)c(Cl)c8)C7(C)C)cn6)CC5)CC4)nc3)cc(N3CCCC[C@H]3CCO)nc12` [Compound I-42], the concentration for 50% growth inhibition (GI50) in the assay with T47D cells was below 500 nM; in the assay with VCaP cells it was below 100 nM; in assay [1], 100 to 1000 nM; in assay [2] it was below 100 nM.

With `CCc1cnn2c(NCc3ccc(OCCCCN4CCN(CC5CCN(c6ncc(C(=O)N[C@H]7C(C)(C)[C@H](Oc8ccc(C#N)c(Cl)c8)C7(C)C)cn6)CC5)CC4)nc3)cc(N3CCCC[C@H]3CCO)nc12` [Compound I-43], the concentration for 50% growth inhibition (GI50) was below 500 nM with T47D cells, below 100 nM in the assay with VCaP cells, 100 to 1000 nM in assay [1] and below 100 nM in assay [2].

With `CCc1cnn2c(NCc3ccc(OCCOCCOCCOC4CCN(c5ccc(C(=O)N[C@H]6C(C)(C)[C@H](Oc7ccc(C#N)c(Cl)c7)C6(C)C)nn5)CC4)nc3)cc(N3CCCC[C@H]3CCO)nc12` [Compound I-44, N-((1r,3r)-3-(3-chloro-4-cyanophenoxy)-2,2,4,4-tetramethylcyclobutyl)-6-(4-(2-(2-(2-((5-(((3-ethyl-5-((S)-2-(2-hydroxyethyl)piperidin-1-yl)pyrazolo[1,5-a]pyrimidin-7-yl)amino)methyl)pyridin-2-yl)oxy)ethoxy)ethoxy)ethoxy)piperidin-1-yl)pyridazine-3-carboxamide], the figures for the concentration for 50% growth inhibition (GI50) (with T47D cells; in assay [1]; in assay [2]) were below 500 nM, 100 to 1000 nM and 100 to 1000 nM, respectively.

For the compound `CCc1cnn2c(NCc3ccc(OCCOCC4CCN(CC5CCN(c6ncc(C(=O)N[C@H]7C(C)(C)[C@H](Oc8ccc(C#N)c(Cl)c8)C7(C)C)cn6)CC5)CC4)nc3)cc(N3CCCC[C@H]3CCO)nc12` [Compound I-45], the GI50 is below 100 nM in the assay with VCaP cells, 100 to 1000 nM in assay [1] and below 100 nM in assay [2].

On to `CCc1cnn2c(NCc3ccc(OC4CCN(CC5CCN(c6ncc(C(=O)N[C@H]7C(C)(C)[C@H](Oc8ccc(C#N)c(Cl)c8)C7(C)C)cn6)CC5)CC4)nc3)cc(N3CCCC[C@H]3CCO)nc12` [Compound I-46], for which the 50% growth inhibitory concentration (GI50) in the assay on T47D cells is below 500 nM; in the assay with VCaP cells, 100 to 1000 nM; in assay [1], 100 to 1000 nM; in assay [2], below 100 nM.

On to `CCc1cnn2c(NCc3ccc(OCCN4CCN(CC5CCN(c6ncc(C(=O)N[C@H]7C(C)(C)[C@H](Oc8ccc(C#N)c(Cl)c8)C7(C)C)cn6)CC5)CC4)nc3)cc(-c3ccccc3)nc12` [Compound I-47, N-((1r,3r)-3-(3-chloro-4-cyanophenoxy)-2,2,4,4-tetramethylcyclobutyl)-2-(4-((4-(2-((5-(((3-ethyl-5-phenylpyrazolo[1,5-a]pyrimidin-7-yl)amino)methyl)pyridin-2-yl)oxy)ethyl)piperazin-1-yl)methyl)piperidin-1-yl)pyrimidine-5-carboxamide], for which the GI50 in the assay with T47D cells is above 3000 nM; with VCaP cells, above 3500 nM; in assay [1], above 3500 nM; in assay [2] it was 100 to 1000 nM.
